Reference: patent US20260374754A1, “N-((ISOQUINOLIN-6-YL)METHYL)-1H-PYRAZOLE-4-CARBOXAMIDE DERIVATIVES AS PLASMA KALLIKREIN INHIBITORS FOR THE TREATMENT OF HEREDITARY ANGIODEMA” (Takeda Pharmaceutical Company Limited, priority 2022, published 2026)
Structures can show the parent of a compound that is named as a salt.

Biological target: human activated kallikrein enzyme (Homo sapiens, UniProt P03952)
Assay: Inhibition of human activated plasma kallikrein, fluorogenic PFR-AMC substrate, 500 pM enzyme format
Format: biochemical
Details: 500 pM activated kallikrein; 300 μM PFR-AMC; 30 min preincubation; 10 min room temperature; pH 7.5; read-out: Primary Dose Response Assay: Average EC50
Protocol: Compounds were evaluated for inhibition of the human activated kallikrein enzyme in two formats of an assay employing a fluorogenic peptide substrate. In one assay format, the concentrations of reagents were as follows: 20 mM Tris pH 7.5, 1 mM EDTA, 150 mM sodium chloride, 0.1% PEG-400, 0.1% Triton X-100, 500 pM activated kallikrein enzyme, 300 μM Pro-Phe-Arg-7-amido-4-methylcoumarin (PFR-AMC) substrate. Prior to reaction initiation with substrate, enzyme and inhibitors were preincubated for 30 min at room temperature. After initiation with substrate, reactions were incubated for 10 min at room temperature and fluorescence emission at 460 nm from 380 nm excitation measured with a microplate reader. In another assay format, the concentrations of reagents were as follows: 20 mM Tris pH 7.5, 1 mM EDTA, 150 mM sodium chloride, 0.1% PEG-400, 0.1% Triton X-100, 5 pM activated kallikrein enzyme, 300 uM PFR-AMC substrate. Prior to reaction initiation with substrate, enzyme and inhibitors were preincubated for 30 min at room temperature. After initiation with substrate, reactions were incubated for 18 hr at room temperature and fluorescence emission at 460 nm from 380 nm excitation measured with a microplate reader.
Table 35 provides the results of the assay in the format with 500 pM activated kallikrein assay.

Chain of human activated kallikrein enzyme (P03952 391-638 limits assumed): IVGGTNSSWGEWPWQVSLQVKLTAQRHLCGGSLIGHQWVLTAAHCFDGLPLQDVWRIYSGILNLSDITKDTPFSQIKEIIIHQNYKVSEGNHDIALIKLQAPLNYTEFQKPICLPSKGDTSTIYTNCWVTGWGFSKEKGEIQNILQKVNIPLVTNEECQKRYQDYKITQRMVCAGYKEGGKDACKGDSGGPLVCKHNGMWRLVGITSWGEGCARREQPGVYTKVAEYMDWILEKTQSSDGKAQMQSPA
Chain of human activated kallikrein enzyme (P03952 20-390 partner limits assumed): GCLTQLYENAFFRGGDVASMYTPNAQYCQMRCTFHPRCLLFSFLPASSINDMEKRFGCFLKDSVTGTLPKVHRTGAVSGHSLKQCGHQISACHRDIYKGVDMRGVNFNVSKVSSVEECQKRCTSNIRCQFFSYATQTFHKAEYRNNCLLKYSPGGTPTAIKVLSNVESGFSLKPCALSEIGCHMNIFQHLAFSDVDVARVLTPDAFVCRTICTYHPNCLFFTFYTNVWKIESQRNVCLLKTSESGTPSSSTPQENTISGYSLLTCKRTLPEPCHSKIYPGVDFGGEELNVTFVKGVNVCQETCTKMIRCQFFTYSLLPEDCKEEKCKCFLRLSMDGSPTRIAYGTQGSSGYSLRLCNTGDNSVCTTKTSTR

First: Cc1cc2c(N)nccc2c(C)c1CNc1cc(NCc2ccc(OCc3ncco3)cc2)ncn1 [Example 351, N^4-((1-amino-5,7-dimethylisoquinolin-6-yl)methyl)-N^6-(4-(oxazol-2-ylmethoxy)benzyl)pyrimidine-4,6-diamine, formic acid salt]
Second: Cc1cc2c(N)nccc2c(C)c1CNc1cc(NCc2ccc3ccccc3n2)ncn1 [Example 306, N^4-((1-amino-5,7-dimethylisoquinolin-6-yl)methyl)-N^6-(quinolin-2-ylmethyl)pyrimidine-4,6-diamine]
The EC50 of the first is lower: 1 to 10 nM for the first, 10 to 100 nM for the second.

`Cc1cc2c(N)nccc2c(C)c1CNc1cc(NCc2ccc3c(-c4ccccn4)cccc3c2)ncn1` [Example 241, N4-((1-amino-5,7-dimethylisoquinolin-6-yl)methyl)-N6-((5-(pyridin-2-yl)naphthalen-2-yl)methyl)pyrimidine-4,6-diamine] and `Cc1cc2c(N)nccc2c(C)c1CNc1cc(NCc2cn3ccccc3n2)ncn1` [Example 321, N^4-((1-amino-5,7-dimethylisoquinolin-6-yl)methyl)-N^6-(imidazo[1,2-a]pyridin-2-ylmethyl)pyrimidine-4,6-diamine] fall in the same range of EC50: 1 to 10 nM for the first, 1 to 10 nM for the second.

Compared with `Cc1cc2c(N)nccc2c(C)c1CNC(=O)c1cnn(Cc2ccc(CC(=O)N3C[C@@H]4[C@H](C3)[C@H]4C(=O)O)cc2)c1` [Example 213, (1R,5S,6r)-3-(2-(4-((4-(((1-amino-5,7-dimethylisoquinolin-6-yl)methyl)carbamoyl)-1H-pyrazol-1-yl)methyl)phenyl)acetyl)-3-azabicyclo[3.1.0]hexane-6-carboxylic acid], `Cc1cc2c(N)nccc2c(C)c1CNC(=O)c1cnn(Cc2ccncc2)c1` [Example 87, N-((1-amino-5,7-dimethylisoquinolin-6-yl)methyl)-1-(pyridin-4-ylmethyl)-1H-pyrazole-4-carboxamide] is higher in EC50: 10 to 100 nM for the first, 100 to 1000 nM for the second. The first is the more potent here.

`Cc1cc2c(N)nccc2c(C)c1CNc1cc(OCc2ccc(Cn3ccccc3=O)cc2)c(Cl)cn1` [Example I-456, 1-(4-(((2-(((1-amino-5,7-dimethylisoquinolin-6-yl)methyl)amino)-5-chloropyridin-4-yl)oxy)methyl)benzyl)pyridin-2(1H)-one] and `Cc1cc2c(N)nccc2c(C)c1CNc1cc(OCc2ccc(CN3CCOCC3=O)cc2)ncn1` [Example 302, 4-(4-(((6-(((1-amino-5,7-dimethylisoquinolin-6-yl)methyl)amino)pyrimidin-4-yl)oxy)methyl)benzyl)morpholin-3-one, trifluoroacetic acid salt] fall in the same range of EC50: 1 to 10 nM for the first, 1 to 10 nM for the second.

Compared with `Cc1cc2c(N)nccc2c(C)c1CNc1cc(NCc2cc(C)c(OCc3nccs3)c(C)c2)ncn1` [Example 355, N^4-((1-amino-5,7-dimethylisoquinolin-6-yl)methyl)-N^6-(3,5-dimethyl-4-(thiazol-2-ylmethoxy)benzyl)pyrimidine-4,6-diamine, formic acid salt], `Cc1cc2c(N)nccc2c(C)c1CNc1cc(OCc2ccc3nccn3c2)cnn1` [Example 410, 6-(((5-(imidazo[1,2-a]pyridin-6-ylmethoxy)pyridazin-3-yl)amino)methyl)-5,7-dimethylisoquinolin-1-amine] is higher in EC50: 1 to 10 nM for the first, 100 to 1000 nM for the second. The first is the more potent here.

`Cc1cnn(Cc2ccc(Cn3cc(C(=O)NCc4c(C)cc5c(N)nccc5c4C)c(C(F)(F)F)n3)cc2)c1` [Example 184, N-((1-amino-5,7-dimethylisoquinolin-6-yl)methyl)-1-(4-((4-methyl-1H-pyrazol-1-yl)methyl)benzyl)-3-(trifluoromethyl)-1H-pyrazole-4-carboxamide] and `Cc1ccn2cc(Cn3cc(C(=O)NCc4c(C)cc5c(N)nccc5c4C)cn3)nc2c1` [Example 103, N-((1-amino-5,7-dimethylisoquinolin-6-yl)methyl)-1-((7-methylimidazo[1,2-a]pyridin-2-yl)methyl)-1H-pyrazole-4-carboxamide] cannot be ordered by EC50: < 1 nM for the first, < 1 nM for the second.

`Cc1cc2c(N)nccc2c(C)c1CNC(=O)c1cnn(Cc2cc3ccccc3s2)c1` [Example 84, N-((1-amino-5,7-dimethylisoquinolin-6-yl)methyl)-1-(benzo[b]thiophen-2-ylmethyl)-1H-pyrazole-4-carboxamide] and `Cc1cc2c(N)nccc2c(C)c1CNC(=O)c1cnn(Cc2cc3ccc(Cl)cc3s2)c1` [Example 81, N-((1-amino-5,7-dimethylisoquinolin-6-yl)methyl)-1-((6-chlorobenzo[b]thiophen-2-yl)methyl)-1H-pyrazole-4-carboxamide] fall in the same range of EC50: 1 to 10 nM for the first, 1 to 10 nM for the second.

First: COCc1nn(Cc2cnc(N3CCCC3)nc2)cc1C(=O)NCc1c(C)cc2c(N)nccc2c1C [Example 162, N-((1-amino-5,7-dimethylisoquinolin-6-yl)methyl)-3-(methoxymethyl)-1-((2-(pyrrolidin-1-y1)pyrimidin-5-yl)methyl)-1H-pyrazole-4-carboxamide]
Second: Cc1cc2c(N)nccc2c(C)c1CNC(=O)c1cnn(Cc2cnc(-c3ccccc3)nc2)c1 [Example 195, N-((1-amino-5,7-dimethylisoquinolin-6-yl)methyl)-1-((2-phenylpyrimidin-5-yl)methyl)-1H-pyrazole-4-carboxamide]
The EC50 of the first is lower: < 1 nM for the first, 1 to 10 nM for the second.

`Cc1cc2c(N)nccc2c(C)c1CNC(=O)c1cnn([C@H](C)c2ccccc2)c1` [Example 127, (R)-N-((1-amino-5,7-dimethylisoquinolin-6-yl)methyl)-1-(1-phenylethyl)-1H-pyrazole-4-carboxamide] and `Cc1cc2c(N)nccc2c(C)c1CNC(=O)c1cnn(Cc2nc3ccccc3n2C(C)C)c1` [Example 71, N-((1-amino-5,7-dimethylisoquinolin-6-yl)methyl)-1-((1-isopropyl-1H-benzo[d]imidazol-2-yl)methyl)-1H-pyrazole-4-carboxamide] fall in the same range of EC50: 100 to 1000 nM for the first, 100 to 1000 nM for the second.

`Cc1cc2c(N)nccc2c(C)c1CNC(=O)c1cnn(Cc2ccc3c(-n4ccccc4=O)cccc3c2)c1` [Example 125, N-((1-amino-5,7-dimethylisoquinolin-6-yl)methyl)-1-((5-(2-oxopyridin-1(2H)-yl)naphthalen-2-yl)methyl)-1H-pyrazole-4-carboxamide] and `Cc1cc2c(N)nccc2c(C)c1CNC(=O)c1cnn(Cc2ccc3c(-n4cccn4)cccc3c2)c1` [Example 112, 1-((5-(1H-pyrazol-1-yl)naphthalen-2-yl)methyl)-N-((1-amino-5,7-dimethylisoquinolin-6-yl)methyl)-1H-pyrazole-4-carboxamide] cannot be ordered by EC50: < 1 nM for the first, < 1 nM for the second.

Compared with `Cc1cc2c(N)nccc2c(C)c1CNc1ccc2ncc(Cc3ccc4ccccc4c3)n2c1` [Example 522, 5,7-dimethyl-6-(((3-(naphthalen-2-ylmethyl)imidazo[1,2-a]pyridin-6-yl)amino)methyl)-isoquinolin-1-amine], `COc1ccc2cc(Cn3cc(C(=O)NCc4c(C)cc5c(N)nccc5c4C)cn3)c(Cl)nc2c1` [Example 108, N-((1-amino-5,7-dimethylisoquinolin-6-yl)methyl)-1-((2-chloro-7-methoxyquinolin-3-yl)methyl)-1H-pyrazole-4-carboxamide] is lower in EC50: > 1000 nM for the first, < 1 nM for the second.

First: COc1ccc2nc(Cn3cc(C(=O)NCc4c(C)cc5c(N)nccc5c4C)cn3)ncc2c1 [Example 126, N-((1-amino-5,7-dimethylisoquinolin-6-yl)methyl)-1-((6-methoxyquinazolin-2-yl)methyl)-1H-pyrazole-4-carboxamide]
Second: COc1cccc2nc(Cn3cc(C(=O)NCc4c(C)cc5c(N)nccc5c4C)cn3)cn12 [Example 144, N-((1-amino-5,7-dimethylisoquinolin-6-yl)methyl)-1-((5-methoxyimidazo[1,2-a]pyridin-2-yl)methyl)-1H-pyrazole-4-carboxamide]
The EC50 of the first is higher: 10 to 100 nM for the first, < 1 nM for the second. The second is the more potent here.

First: Cc1cc2nc(Cn3cc(C(=O)NCc4c(C)cc5c(N)nccc5c4C)cn3)cn2cc1C1CC1 [Example 146, N-((1-amino-5,7-dimethylisoquinolin-6-yl)methyl)-1-((6-cyclopropyl-7-methylimidazo[1,2-a]pyridin-2-yl)methyl)-1H-pyrazole-4-carboxamide]
Second: Cc1c(CNC(=O)c2cnn(Cc3ccccc3)c2)c(C2CC2)cc2c(N)nccc12 [Example 174, N-((1-amino-7-cyclopropyl-5-methylisoquinolin-6-yl)methyl)-1-benzyl-1H-pyrazole-4-carboxamide]
The EC50 of the first is lower: < 1 nM for the first, 10 to 100 nM for the second. The first is the more potent here.

First: Cc1ccc2nc(Cn3cc(C(=O)NCc4c(C)cc5c(NC(=O)OCc6ccccc6)nccc5c4C)cn3)cn2c1 [Example 7, benzyl (5,7-dimethyl-6-((1-((6-methylimidazo[1,2-a]pyridin-2-yl)methyl)-1H-pyrazole-4-carboxamido)methyl)isoquinolin-1-yl)carbamate]
Second: Cc1cc2c(N)nccc2c(C)c1CNC(=O)c1cn(C(C)c2ccc3ncc(Cl)cc3c2)nn1 (centres unmarked) [Example 200, N-((1-amino-5,7-dimethylisoquinolin-6-yl)methyl)-1-(1-(3-chloroquinolin-6-yl)ethyl)-1H-1,2,3-triazole-4-carboxamide]
The EC50 of the first is higher: 10 to 100 nM for the first, 1 to 10 nM for the second. The second is the more potent here.

In the case of `CCOC(=O)c1nc(NCc2c(C)cc3c(N)nccc3c2C)cc(OCc2cn3cc(C4CC4)cnc3n2)n1` [Example 489, ethyl 4-(((1-amino-5,7-dimethylisoquinolin-6-yl)methyl)amino)-6-((6-cyclopropylimidazo[1,2-a]pyrimidin-2-yl)methoxy)pyrimidine-2-carboxylate], the EC50 is reported as < 1 nM.
